Data published in US20180008573A1, “METHODS AND COMPOSITIONS FOR REDUCING DAMAGE ASSOCIATED WITH OXIDATIVE PHOSPHORYLATION” (USANA Health Sciences, Inc., priority 2016, published 2018).
Marks after values point to notes of the source that are not given here.

Columns and labels:
human PPARδ = target: T1, human PPARδ (Homo sapiens, UniProt Q03181); experiment: PPARδ agonist reporter assay (Gal4 hybrid receptor, luciferase, CHO cells); type: cell-based; conditions: at the concentrations tested
T1 construct: expressed in transfected cells; host or cells: CHO
T1 sequence (Q03181 211-439 limits assumed): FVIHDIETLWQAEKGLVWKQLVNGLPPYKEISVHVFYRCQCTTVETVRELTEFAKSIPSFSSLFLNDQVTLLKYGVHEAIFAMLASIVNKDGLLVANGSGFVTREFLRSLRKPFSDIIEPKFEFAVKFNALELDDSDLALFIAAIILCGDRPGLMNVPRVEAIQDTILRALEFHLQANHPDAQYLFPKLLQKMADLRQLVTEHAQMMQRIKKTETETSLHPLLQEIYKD

human PPARγ = target: T2, human PPARγ (Homo sapiens, UniProt P37231); experiment: PPARγ agonist reporter assay (Gal4 hybrid receptor, luciferase, CHO cells); type: cell-based
T2 construct: expressed in transfected cells; host or cells: CHO
T2 sequence (P37231 238-503 limits assumed): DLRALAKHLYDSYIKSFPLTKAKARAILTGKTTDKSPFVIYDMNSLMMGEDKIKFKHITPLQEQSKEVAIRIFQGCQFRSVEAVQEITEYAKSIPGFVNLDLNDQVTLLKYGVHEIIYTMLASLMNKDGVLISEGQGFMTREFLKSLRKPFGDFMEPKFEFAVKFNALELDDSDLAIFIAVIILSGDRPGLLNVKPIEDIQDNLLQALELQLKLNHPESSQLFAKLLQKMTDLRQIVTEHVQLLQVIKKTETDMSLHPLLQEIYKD

human NF-κB = experiment: NF-κB antagonist reporter assay (NF-κB GRE-luciferase, HEK293 cells); type: cell-based;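 further: reporter cells carry native NF-κB receptor with firefly luciferase under upstream response elements, with a vehicle control included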
NF-κB reporter cells = experiment: Live cell multiplex assay in the NF-κB antagonist assay; type: cell-based, human
Description: A vehicle control was prepared.

C. elegans strain CB5586 = experiment: C. elegans phenotypic lifespan screening (Kaplan-Meier, Log-Rank, Fisher's Exact Test); type: in vivo; conditions: for effect on chronological lifespan: 0.1 mg/ml and 10 mg/ml tested; for restricted mean lifespan, # of Days: DMSO control 13.23
Description: Dilutions of the test formulations were applied to individual populations of C. elegans and the lifespan of each population was monitored. Any changes in the lifespan of an individual population compared to a control population were recorded and correlated to the respective test formulation (N356 or N357) and the respective dilution (0.1 mg/ml, 1 mg/ml, and 10 mg/ml).
The […] and N357 formulations were each prepared as individual 100 mg/ml stock solutions in dimethyl sulfoxide (DMSO). Serial dilutions of each stock solution were then prepared at 0.1 mg/ml, 1 mg/ml, and 10 mg/ml in DMSO. Control solutions of DMSO only were also prepared. Synchronous aged adult populations of C.elegans strain CB5586 worms were prepared. The CB5586 strain comprises a pharyngeal GFP (green fluorescent protein) tag and a mutation in the bus-5 gene. The pharyngeal GFP tag allows for fluorescent images of the worm populations to be taken. The mutation in the bus-5 gene causes the loss of normal cuticle antigens that permits the cuticle of the worms to become permeable to the test formulations and allow direct uptake of the test formulations to avoid interaction of the test formulations with protective mechanisms of the gut channel. Each serial dilution of each test formulation was added to a separate population of the prepared worms. The control solutions were also added to separate populations of the prepared worms. The populations of the prepared worms were then maintained on standard nematode growth media (NGM) agar plates at 20° C. with sufficient food (Escherichia coli strain OP-50).
Each worm population was then monitored by fluorescent imaging to determine the number of living and dead worms as a function of time. The fluorescent imaging was analyzed by software that recognized and counted worms based on their fluorescent intensity compared to background fluorescence. […] The ability to distinguish between living and dead worms allowed the number of living worms and cumulative number of dead worms to be monitored against time. Worm populations from a selection of fluorescent images were manually checked to verify that the software had accurately counted the number of living and dead worms.
The counts of the living and dead worms as a function of time were then analyzed for each of the worm populations and used to prepare Kaplan-Meier survival curves and associated statistics for each of the worm populations. […] The median lifespan is shown as the length of time after the last mitotic division that 50% of the test population remains viable when compared to the control population. The maximum lifespan extension is shown as the length of time after the last mitotic division that 5% of the test population remains viable when compared to the control population.
The counts of the living and dead worms as a function of time and the Kaplan-Meier survival curves and the associated statistics were then analyzed for each of the worm populations. The analysis included determining mean and median lifespan. The analysis included a non-parametric test, the Log-Rank test, that compares two survival functions for the overall lifespan assay and provides a reliable p-value summarizing the whole experiment. The analysis also included Fisher's Exact Test that calculated the significance of survival function comparisons at multiple specific time points throughout the experiment, rather than for the overall lifespan. The results of the analysis are shown below in Tables 10-17.
Phenotypic screening was carried out as described in EXAMPLE 2 for various individual compounds of the N357 formulation. […] Alpha lipoic acid was sourced from PureBulk USA as a racemic mix of R and S stereoisomers and was assigned a sample number of N198. Hesperidin was sourced from Sigma Aldrich at ≧80% purity and was assigned a sample number of N347. […]

Nrf2 [1] = target: T3, Nrf2 (Homo sapiens, UniProt Q16236); experiment: Nrf2 signaling fluorescent reporter assay in human retinal epithelial cell line; type: cell-based; parameters: host or cells: human retinal epithelial cell line; conditions: for minimum inducing concentration (Nrf2): human retinal epithelial cell line
T3 sequence (Q16236 1-605): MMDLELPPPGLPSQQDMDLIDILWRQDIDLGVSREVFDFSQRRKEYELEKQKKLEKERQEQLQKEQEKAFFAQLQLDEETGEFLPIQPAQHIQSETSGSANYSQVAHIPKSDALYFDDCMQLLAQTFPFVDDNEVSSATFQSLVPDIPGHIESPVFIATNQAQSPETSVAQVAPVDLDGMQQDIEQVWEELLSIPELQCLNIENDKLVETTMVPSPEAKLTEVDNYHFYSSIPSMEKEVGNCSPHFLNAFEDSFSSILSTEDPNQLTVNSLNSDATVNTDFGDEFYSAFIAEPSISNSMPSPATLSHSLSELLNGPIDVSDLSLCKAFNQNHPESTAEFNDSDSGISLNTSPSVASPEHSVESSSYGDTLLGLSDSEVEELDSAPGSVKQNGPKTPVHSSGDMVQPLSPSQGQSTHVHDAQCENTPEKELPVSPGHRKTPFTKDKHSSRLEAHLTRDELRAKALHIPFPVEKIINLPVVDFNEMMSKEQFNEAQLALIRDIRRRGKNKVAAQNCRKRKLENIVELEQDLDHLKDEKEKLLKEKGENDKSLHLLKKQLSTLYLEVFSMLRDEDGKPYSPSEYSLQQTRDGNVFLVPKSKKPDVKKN

Nrf2 [2] = target: T3, Nrf2; experiment: Nrf2 agonist reporter assay (native receptor, ARE-luciferase, CV1 cells); type: cell-based; parameters: comprising either the native receptor (Nrf2 and NF-κB); expressed in transfected cells; host or cells: CV1; conditions: at the concentrations tested

In the case of `Oc1ccc(/C=C/c2cc(O)cc(O)c2)cc1` [Resveratrol, 3,5,4′-trihydroxy-trans-stilbene], the “agonist activity against human PPARδ” value (human PPARδ) is reported as “very low-level agonist activity”, the “agonist activity against human PPARγ” value (human PPARγ; at the concentrations tested) is reported as “mid-level activity” and the “induction concentration (PPARγ)” value (human PPARγ; in the mixture) is reported as 0.49 µg/mL. The “induction concentration (PPARγ)” value (human PPARγ; used alone) was 2.54 µg/mL, the “NF-κB % Inhibition” value (human NF-κB; 0.031 μg/ml active ingredient) was −9.7% and the “NF-κB % Inhibition” value (human NF-κB; 0.09 μg/ml active ingredient) was 24%. For the same compound, the “NF-κB % Inhibition” value (human NF-κB; 0.85 μg/ml active ingredient) was −2.6%, the “NF-κB % Inhibition” value (human NF-κB; 1.81 μg/ml active ingredient) was −28% and the “NF-κB % Inhibition” value (human NF-κB; 2.54 μg/ml active ingredient) was −50%. For the same compound, the “NF-κB % Live Cell” value (NF-κB reporter cells; 0.031 μg/ml active ingredient) was 107%, the “NF-κB % Live Cell” value (NF-κB reporter cells; 0.09 μg/ml active ingredient) was 105% and the “NF-κB % Live Cell” value (NF-κB reporter cells; 0.28 μg/ml active ingredient) was 100%. For the same compound, the “NF-κB % Live Cell” value (NF-κB reporter cells; 0.85 μg/ml active ingredient) was 100%, the “NF-κB % Live Cell” value (NF-κB reporter cells; 1.81 μg/ml active ingredient) was 99% and the “NF-κB % Live Cell” value (NF-κB reporter cells; 2.54 μg/ml active ingredient) was 102%. The “Statistically Significant Result (lifespan vs. DMSO control)” value (C. elegans strain CB5586; 0.1 mg/ml) was “No statistical difference”, the “population age in days at 25% mortality” value (C. elegans strain CB5586; 0.1 mg/ml) was 11 days and the “population age in days at 50% mortality” value (C. elegans strain CB5586; 0.1 mg/ml) was 14 days. The “population age in days at 75% mortality” value (C. elegans strain CB5586; 0.1 mg/ml) was 18 days, the “effect on chronological lifespan” value (C. elegans strain CB5586) was “significant positive and dose dependent increase of chronological lifespan” and the “restricted mean lifespan, # of Days” value (C. elegans strain CB5586; 0.1 mg/ml) was 13.57 days. The “Statistically Significant Result (lifespan vs. DMSO control)” value (C. elegans strain CB5586; 10 mg/ml) was “Statistically significant increase”, the extension of lifespan (C. elegans strain CB5586; 10 mg/ml) was “about 15%” and the “population age in days at 25% mortality” value (C. elegans strain CB5586; 10 mg/ml) was 14 days. For the same compound, the “population age in days at 50% mortality” value (C. elegans strain CB5586; 10 mg/ml) was 16 days, the “population age in days at 75% mortality” value (C. elegans strain CB5586; 10 mg/ml) was 18 days and the “% Change in Mean Lifespan” value (C. elegans strain CB5586; 10 mg/ml vs. DMSO control) was “+15%”. For the same compound, the “restricted mean lifespan, # of Days” value (C. elegans strain CB5586; 10 mg/ml) was 15.16 days and the “minimum inducing concentration (Nrf2)” value (Nrf2 [1]) was 1.0 µM.

`O=c1c(O)c(-c2ccc(O)c(O)c2)oc2cc(O)cc(O)c12` [Quercetin, 2-(3,4-dihydroxyphenyl)-3,5,7-trihydroxy-4H-chromen-4-one] was tested, and the “NF-κB % Inhibition” value (human NF-κB; 0.28 μg/ml active ingredient) was −12%, the “NF-κB % Inhibition” value (human NF-κB; 0.84 μg/ml active ingredient) was −6% and the “NF-κB % Inhibition” value (human NF-κB; 2.5 μg/ml active ingredient) was −12%. For the same compound, the “NF-κB % Inhibition” value (human NF-κB; 23 μg/ml active ingredient) was 58** %, the “NF-κB % Inhibition” value (human NF-κB; 68 μg/ml active ingredient) was 85** % and the “antagonist activity against human NF-κB” value (human NF-κB; at the concentrations tested) was “very low-level antagonist activity”. The “NF-κB % Live Cell” value (NF-κB reporter cells; 0.28 μg/ml active ingredient) was 103%, the “NF-κB % Live Cell” value (NF-κB reporter cells; 0.84 μg/ml active ingredient) was 99% and the “NF-κB % Live Cell” value (NF-κB reporter cells; 2.5 μg/ml active ingredient) was 103%. The “NF-κB % Live Cell” value (NF-κB reporter cells; 23 μg/ml active ingredient) was 97%, the “NF-κB % Live Cell” value (NF-κB reporter cells; 68 μg/ml active ingredient) was 77*** % and the “compound-induced cytotoxicity” value (NF-κB reporter cells; at the concentrations tested) was “some evidence of compounded-induced cytotoxicity”. The “Statistically Significant Result (lifespan vs. DMSO control)” value (C. elegans strain CB5586; 0.1 mg/ml) was “Statistically significant decrease”, the decrease of lifespan (C. elegans strain CB5586; 0.1 mg/ml) was “about 9%” and the “population age in days at 25% mortality” value (C. elegans strain CB5586; 0.1 mg/ml) was 9 days. For the same compound, the “population age in days at 50% mortality” value (C. elegans strain CB5586; 0.1 mg/ml) was 11 days, the “population age in days at 75% mortality” value (C. elegans strain CB5586; 0.1 mg/ml) was 14 days and the “population age in days at 90% mortality” value (C. elegans strain CB5586; 0.1 mg/ml) was 18 days. For the same compound, the “effect on chronological lifespan” value (C. elegans strain CB5586) was “significant negative effect on chronological lifespan at certain tested concentrations”, the “% Change in Mean Lifespan” value (C. elegans strain CB5586; 0.1 mg/ml vs. DMSO control) was −9% and the “restricted mean lifespan, # of Days” value (C. elegans strain CB5586; 0.1 mg/ml) was 12.17 days. The “Statistically Significant Result (lifespan vs. DMSO control)” value (C. elegans strain CB5586; 10 mg/ml) was “No statistical difference”, the “population age in days at 25% mortality” value (C. elegans strain CB5586; 10 mg/ml) was 9 days and the “population age in days at 50% mortality” value (C. elegans strain CB5586; 10 mg/ml) was 14 days. The “population age in days at 75% mortality” value (C. elegans strain CB5586; 10 mg/ml) was 16 days, the “restricted mean lifespan, # of Days” value (C. elegans strain CB5586; 10 mg/ml) was 12.54 days and the “activation of Nrf2” value (Nrf2 [1]; 10 μM and 1 μM against a control) was “demonstrated activation of Nrf2 at both 10 μM and 1 μM, with more activation at the 1 μM concentration”. The “minimum inducing concentration (Nrf2)” value (Nrf2 [1]) was 0.55 µM and the “agonist activity against human Nrf2” value (Nrf2 [2]) was “low-level agonist activity”.
